Measurements as given in paper PMC8766756, “Insights on Cancer Cell Inhibition, Subcellular Activities, and Kinase Profile of Phenylacetamides Pending 1H-Imidazol-5-One Variants” (Frontiers in Pharmacology, 2022).
“And” between values parts separate entries of the source, which are not always exact repeats. Identical values can stand only once.

Tests used:
Assay in all cases: PamChip tyrosine kinase microarray
Assay type in all cases: biochemical
Conditions in all cases: 0.1 µM, HL60 lysate
Mer (Q12866) = target: T1, Mer (Q12866) (Homo sapiens, UniProt Q12866)
T1 construct: purchased PamGene (PamChip PTK array, Upstream Kinase Analysis)
T1 sequence (Q12866 21-999): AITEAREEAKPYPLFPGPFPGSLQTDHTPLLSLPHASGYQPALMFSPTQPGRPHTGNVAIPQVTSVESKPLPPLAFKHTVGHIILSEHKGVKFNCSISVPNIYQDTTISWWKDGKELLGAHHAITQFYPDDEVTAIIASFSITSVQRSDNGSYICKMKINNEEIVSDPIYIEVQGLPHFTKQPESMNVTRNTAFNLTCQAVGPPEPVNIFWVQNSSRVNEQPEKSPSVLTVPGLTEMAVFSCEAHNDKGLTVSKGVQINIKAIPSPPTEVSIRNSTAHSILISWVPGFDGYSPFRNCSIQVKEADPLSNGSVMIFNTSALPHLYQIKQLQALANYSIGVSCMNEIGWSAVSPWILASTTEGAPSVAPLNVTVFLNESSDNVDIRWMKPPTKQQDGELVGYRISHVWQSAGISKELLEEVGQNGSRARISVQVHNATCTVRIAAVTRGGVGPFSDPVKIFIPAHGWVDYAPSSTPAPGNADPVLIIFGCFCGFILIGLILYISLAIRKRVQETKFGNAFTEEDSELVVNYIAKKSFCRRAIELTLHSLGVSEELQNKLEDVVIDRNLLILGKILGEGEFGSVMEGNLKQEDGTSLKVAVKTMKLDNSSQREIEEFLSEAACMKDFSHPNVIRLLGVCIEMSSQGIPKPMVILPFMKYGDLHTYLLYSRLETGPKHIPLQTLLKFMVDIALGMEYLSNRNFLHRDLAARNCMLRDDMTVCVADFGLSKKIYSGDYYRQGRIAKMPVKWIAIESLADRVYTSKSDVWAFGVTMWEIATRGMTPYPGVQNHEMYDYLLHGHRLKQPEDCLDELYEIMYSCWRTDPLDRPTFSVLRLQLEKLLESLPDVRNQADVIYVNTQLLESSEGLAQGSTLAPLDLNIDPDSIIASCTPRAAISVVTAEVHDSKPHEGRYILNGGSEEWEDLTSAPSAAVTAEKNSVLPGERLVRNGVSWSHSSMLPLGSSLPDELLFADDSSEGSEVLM
In short: (§1)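 HL60 (AML) cell lysate was spiked with compound at 0.001, 0.01, 0.1, 1, 10 and 50 µM, or 2% v/v DMSO as control, then profiled in technical replicates on a tyrosine kinase peptide array of 196 phosphosites. Kinase activity was inferred from peptide-set changes using an upstream kinase tool.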

FmS/CSFR (P07333) = target: T2, FmS/CSFR (P07333) (Homo sapiens, UniProt P07333)
T2 construct: purchased PamGene (PamChip PTK array, Upstream Kinase Analysis)
In short: as §1

SRM (Q9H3Y6) = target: T3, SRM (Q9H3Y6) (Homo sapiens, UniProt Q9H3Y6)
T3 construct: purchased PamGene (PamChip PTK array, Upstream Kinase Analysis)
In short: as §1

LTK (P29376) = target: T4, LTK (P29376) (Homo sapiens, UniProt P29376)
T4 construct: purchased PamGene (PamChip PTK array, Upstream Kinase Analysis)
In short: as §1

HER2 (P04626) = target: T5, HER2 (P04626) (Homo sapiens, UniProt P04626)
T5 construct: purchased PamGene (PamChip PTK array, Upstream Kinase Analysis)
In short: as §1

Ret (P07949) = target: T6, Ret (P07949) (Homo sapiens, UniProt P07949)
T6 construct: purchased PamGene (PamChip PTK array, Upstream Kinase Analysis)
In short: as §1

BLK (P51451) = target: T7, BLK (P51451) (Homo sapiens, UniProt P51451)
T7 construct: purchased PamGene (PamChip PTK array, Upstream Kinase Analysis)
In short: as §1

FRK (P42685) = target: T8, FRK (P42685) (Homo sapiens, UniProt P42685)
T8 construct: purchased PamGene (PamChip PTK array, Upstream Kinase Analysis)
In short: as §1

FGFR3 (P22607) = target: T9, FGFR3 (P22607) (Homo sapiens, UniProt P22607)
T9 construct: purchased PamGene (PamChip PTK array, Upstream Kinase Analysis)
In short: as §1

T6 sequence (P07949 29-1114): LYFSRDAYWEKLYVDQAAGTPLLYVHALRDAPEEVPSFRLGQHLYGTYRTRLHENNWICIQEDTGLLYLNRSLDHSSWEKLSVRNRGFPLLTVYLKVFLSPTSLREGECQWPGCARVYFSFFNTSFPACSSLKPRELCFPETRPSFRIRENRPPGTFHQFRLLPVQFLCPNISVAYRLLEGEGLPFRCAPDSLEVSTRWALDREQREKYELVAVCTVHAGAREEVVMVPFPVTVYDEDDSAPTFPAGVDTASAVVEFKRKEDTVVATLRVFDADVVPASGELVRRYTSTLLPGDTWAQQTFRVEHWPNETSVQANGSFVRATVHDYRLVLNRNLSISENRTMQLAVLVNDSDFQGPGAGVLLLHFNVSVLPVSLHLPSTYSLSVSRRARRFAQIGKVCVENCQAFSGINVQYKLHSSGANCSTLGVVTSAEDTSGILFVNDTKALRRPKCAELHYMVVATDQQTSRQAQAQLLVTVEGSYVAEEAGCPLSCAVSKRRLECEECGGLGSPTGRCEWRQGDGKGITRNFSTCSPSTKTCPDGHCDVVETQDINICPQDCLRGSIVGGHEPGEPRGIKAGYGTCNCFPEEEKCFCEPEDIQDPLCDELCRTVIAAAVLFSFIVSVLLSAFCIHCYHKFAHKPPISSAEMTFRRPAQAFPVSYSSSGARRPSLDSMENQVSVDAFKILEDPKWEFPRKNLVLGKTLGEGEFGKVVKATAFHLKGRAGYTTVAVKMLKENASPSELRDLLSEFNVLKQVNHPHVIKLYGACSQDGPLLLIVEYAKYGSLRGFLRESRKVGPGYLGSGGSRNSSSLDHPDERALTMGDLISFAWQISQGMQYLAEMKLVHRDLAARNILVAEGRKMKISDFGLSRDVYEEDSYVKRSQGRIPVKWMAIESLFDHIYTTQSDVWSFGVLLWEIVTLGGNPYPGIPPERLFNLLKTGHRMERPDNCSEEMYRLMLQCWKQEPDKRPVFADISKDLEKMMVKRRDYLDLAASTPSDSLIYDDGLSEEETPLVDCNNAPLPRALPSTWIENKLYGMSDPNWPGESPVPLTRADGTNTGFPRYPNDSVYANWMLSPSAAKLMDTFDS
T7 sequence (P51451 whole entry): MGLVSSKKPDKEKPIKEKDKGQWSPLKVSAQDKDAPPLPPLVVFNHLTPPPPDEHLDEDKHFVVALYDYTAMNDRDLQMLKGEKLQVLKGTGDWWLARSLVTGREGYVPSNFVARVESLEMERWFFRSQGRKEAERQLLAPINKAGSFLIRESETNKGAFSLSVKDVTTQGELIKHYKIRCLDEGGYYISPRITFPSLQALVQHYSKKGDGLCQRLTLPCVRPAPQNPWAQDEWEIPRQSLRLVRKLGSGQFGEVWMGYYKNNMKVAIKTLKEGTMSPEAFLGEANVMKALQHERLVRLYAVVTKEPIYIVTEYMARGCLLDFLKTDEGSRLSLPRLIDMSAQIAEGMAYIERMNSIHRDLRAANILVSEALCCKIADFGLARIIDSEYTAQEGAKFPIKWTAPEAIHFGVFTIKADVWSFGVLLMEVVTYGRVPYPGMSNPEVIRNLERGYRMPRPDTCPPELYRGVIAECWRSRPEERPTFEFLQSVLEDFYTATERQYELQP
T2 sequence (P07333 20-972, one chain of several): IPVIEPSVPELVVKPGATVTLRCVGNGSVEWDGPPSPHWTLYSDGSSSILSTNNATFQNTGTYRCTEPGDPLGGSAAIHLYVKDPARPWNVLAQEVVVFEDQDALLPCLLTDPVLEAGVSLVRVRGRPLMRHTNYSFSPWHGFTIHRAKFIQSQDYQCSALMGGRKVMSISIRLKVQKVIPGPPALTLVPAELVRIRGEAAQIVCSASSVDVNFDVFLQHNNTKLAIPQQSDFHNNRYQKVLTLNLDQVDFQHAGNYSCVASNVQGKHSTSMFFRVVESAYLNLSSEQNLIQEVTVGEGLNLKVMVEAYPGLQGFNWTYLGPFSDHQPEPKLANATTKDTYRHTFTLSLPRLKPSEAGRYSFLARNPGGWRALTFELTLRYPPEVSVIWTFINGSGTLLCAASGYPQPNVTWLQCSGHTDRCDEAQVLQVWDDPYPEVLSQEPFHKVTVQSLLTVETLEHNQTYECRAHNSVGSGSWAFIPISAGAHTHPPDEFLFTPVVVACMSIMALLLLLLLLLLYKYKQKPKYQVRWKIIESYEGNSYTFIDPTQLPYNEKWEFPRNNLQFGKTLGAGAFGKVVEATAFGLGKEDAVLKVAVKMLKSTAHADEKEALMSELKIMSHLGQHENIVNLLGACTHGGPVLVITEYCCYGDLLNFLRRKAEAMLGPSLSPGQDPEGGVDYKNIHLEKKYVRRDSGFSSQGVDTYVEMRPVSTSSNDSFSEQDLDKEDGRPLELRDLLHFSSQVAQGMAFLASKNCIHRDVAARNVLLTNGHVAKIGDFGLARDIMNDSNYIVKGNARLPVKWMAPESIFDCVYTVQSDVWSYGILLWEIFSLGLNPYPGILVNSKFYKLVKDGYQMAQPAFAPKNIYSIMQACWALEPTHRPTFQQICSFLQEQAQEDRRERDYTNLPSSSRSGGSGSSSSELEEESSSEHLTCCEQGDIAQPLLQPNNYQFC
T4 sequence (P29376 17-864): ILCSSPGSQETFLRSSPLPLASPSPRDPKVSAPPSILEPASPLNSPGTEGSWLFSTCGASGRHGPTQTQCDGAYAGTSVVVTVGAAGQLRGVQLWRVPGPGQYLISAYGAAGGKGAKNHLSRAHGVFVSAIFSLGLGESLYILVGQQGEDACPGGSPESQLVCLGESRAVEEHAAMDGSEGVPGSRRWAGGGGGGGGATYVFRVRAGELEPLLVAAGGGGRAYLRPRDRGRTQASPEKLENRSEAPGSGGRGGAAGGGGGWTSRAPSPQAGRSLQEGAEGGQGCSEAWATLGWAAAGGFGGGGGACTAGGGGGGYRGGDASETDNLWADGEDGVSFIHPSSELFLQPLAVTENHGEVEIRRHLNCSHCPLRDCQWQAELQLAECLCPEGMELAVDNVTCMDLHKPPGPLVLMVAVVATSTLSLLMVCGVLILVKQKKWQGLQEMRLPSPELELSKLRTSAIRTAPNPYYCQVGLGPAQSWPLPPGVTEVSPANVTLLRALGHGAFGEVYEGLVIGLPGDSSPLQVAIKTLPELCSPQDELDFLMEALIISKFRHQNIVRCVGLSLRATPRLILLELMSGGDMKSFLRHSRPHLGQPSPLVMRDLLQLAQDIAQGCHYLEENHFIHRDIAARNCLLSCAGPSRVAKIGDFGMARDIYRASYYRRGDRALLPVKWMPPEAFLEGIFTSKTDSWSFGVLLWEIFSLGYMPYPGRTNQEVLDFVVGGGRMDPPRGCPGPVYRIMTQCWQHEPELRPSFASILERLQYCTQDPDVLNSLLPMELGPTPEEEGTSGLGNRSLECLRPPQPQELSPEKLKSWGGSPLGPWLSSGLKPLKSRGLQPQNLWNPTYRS
T8 sequence (P42685 whole entry): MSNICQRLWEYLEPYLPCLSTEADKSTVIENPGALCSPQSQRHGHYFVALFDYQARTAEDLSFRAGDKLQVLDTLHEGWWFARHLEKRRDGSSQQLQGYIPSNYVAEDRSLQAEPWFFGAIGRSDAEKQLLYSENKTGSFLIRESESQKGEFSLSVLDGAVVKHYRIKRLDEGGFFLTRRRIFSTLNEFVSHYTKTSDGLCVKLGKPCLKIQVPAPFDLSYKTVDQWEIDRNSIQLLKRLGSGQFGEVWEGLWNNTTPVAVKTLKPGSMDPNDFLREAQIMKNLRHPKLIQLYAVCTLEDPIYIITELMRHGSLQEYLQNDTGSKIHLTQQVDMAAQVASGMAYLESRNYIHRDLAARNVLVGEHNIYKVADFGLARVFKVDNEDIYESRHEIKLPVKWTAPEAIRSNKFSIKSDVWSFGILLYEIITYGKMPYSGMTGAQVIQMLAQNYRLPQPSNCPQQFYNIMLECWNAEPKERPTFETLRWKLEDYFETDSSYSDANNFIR
T3 sequence (Q9H3Y6 whole entry): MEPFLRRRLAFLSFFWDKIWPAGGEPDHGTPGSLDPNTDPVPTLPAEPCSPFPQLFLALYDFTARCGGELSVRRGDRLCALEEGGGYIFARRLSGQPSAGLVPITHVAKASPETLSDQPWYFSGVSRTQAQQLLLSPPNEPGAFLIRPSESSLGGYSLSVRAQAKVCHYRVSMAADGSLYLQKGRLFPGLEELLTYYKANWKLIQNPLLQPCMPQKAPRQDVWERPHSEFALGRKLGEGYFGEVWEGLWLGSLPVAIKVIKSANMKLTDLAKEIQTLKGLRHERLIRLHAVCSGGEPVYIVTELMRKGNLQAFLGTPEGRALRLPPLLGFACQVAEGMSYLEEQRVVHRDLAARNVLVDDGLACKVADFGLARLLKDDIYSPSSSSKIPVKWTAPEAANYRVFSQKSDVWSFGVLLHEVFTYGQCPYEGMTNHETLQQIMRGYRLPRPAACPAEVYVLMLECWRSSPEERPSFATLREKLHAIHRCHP

COc1ccc(/C=C2\N=C(C)N(c3ccc(CC(=O)NCc4ccccc4)cc3)C2=O)cc1 [Compound 4c, (Z)-N-Benzyl-2-(4-(4-(4-methoxybenzylidene)-2-methyl-5-oxo-4,5-dihydro-1H-imidazol-1-yl)phenyl)acetamide]
Mean Final score (Kinase score) (Mer (Q12866)): 2.544
Mean Kinase Statistic (Mer (Q12866)): -1.224
Mean Significance Score (Mer (Q12866)): 2.048
Mean Specificity Score (Mer (Q12866)): 0.533
Mean Final score (Kinase score) (FmS/CSFR (P07333)): 2.549
Mean Kinase Statistic (FmS/CSFR (P07333)): -1.225
Mean Significance Score (FmS/CSFR (P07333)): 2.048
Mean Specificity Score (FmS/CSFR (P07333)): 0.582
Mean Significance Score (SRM (Q9H3Y6)): 2.048
Mean Specificity Score (SRM (Q9H3Y6)): 1.961
Mean Final score (Kinase score) (SRM (Q9H3Y6); listed as KIM-161): 4.1 and 4.097
Mean Final score (Kinase score) (LTK (P29376)): 1.968
Mean Kinase Statistic (LTK (P29376)): -1.055
Mean Significance Score (LTK (P29376)): 1.724
Mean Specificity Score (LTK (P29376)): 0.1654
Mean Final score (Kinase score) (HER2 (P04626)): 2.103
Mean Kinase Statistic (HER2 (P04626)): -1.031
Mean Significance Score (HER2 (P04626)): 1.88
Mean Specificity Score (HER2 (P04626)): 0.08906
Mean Significance Score (Ret (P07949)): 2.048
Mean Specificity Score (Ret (P07949)): 1.108
Mean Final score (Kinase score) (Ret (P07949); listed as KIM-161): 3.14 and 3.143
Mean Final score (Kinase score) (BLK (P51451)): 1.48
Mean Kinase Statistic (BLK (P51451)): -1.015
Mean Significance Score (BLK (P51451)): 1.433
Mean Specificity Score (BLK (P51451)): 0.07394
Mean Significance Score (FRK (P42685)): 2.048
Mean Specificity Score (FRK (P42685)): 1.533
Mean Final score (Kinase score) (FRK (P42685); listed as KIM-161): 3.45 and 3.453
Mean Final score (Kinase score) (FGFR3 (P22607)): 2.271
Mean Kinase Statistic (FGFR3 (P22607)): -1.175
Mean Significance Score (FGFR3 (P22607)): 1.984
Mean Specificity Score (FGFR3 (P22607)): 0.3218
